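Following 48 hours of exposure in 96-well plates, responses at five concentrations were used to interpolate endpoints linearly. At the GI50, growth is halved. The concentration for full growth arrest is given as TGI.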
Legend:
Experiment in all cases: NCI anticancer screen, dose series, 48 h
SF-268 CNS = system: SF-268 CNS
COLO 205 colon = system: COLO 205 colon
OVCAR-3 ovarian = system: OVCAR-3 ovarian
MALME-3M melanoma = system: MALME-3M melanoma
KM12 colon = system: KM12 colon
SK-MEL-5 melanoma = system: SK-MEL-5 melanoma
TK-10 renal = system: TK-10 renal
SW-620 colon = system: SW-620 colon
MDA-MB-435 = system: MDA-MB-435
BT-549 breast = system: BT-549 breast
OVCAR-5 ovarian = system: OVCAR-5 ovarian
NCI-H460 lung = system: NCI-H460 lung
ACHN renal = system: ACHN renal
OVCAR-8 ovarian = system: OVCAR-8 ovarian
786-0 renal = system: 786-0 renal
NCI-H226 lung = system: NCI-H226 lung
LOX IMVI melanoma = system: LOX IMVI melanoma
HS 578T breast = system: HS 578T breast
SF-295 CNS = system: SF-295 CNS
NCI-H522 lung = system: NCI-H522 lung
RXF 393 renal = system: RXF 393 renal
SNB-75 CNS = system: SNB-75 CNS
DU-145 prostate = system: DU-145 prostate
NCI/ADR-RES ovarian = system: NCI/ADR-RES ovarian
MOLT-4 leukemia = system: MOLT-4 leukemia
SK-MEL-28 melanoma = system: SK-MEL-28 melanoma
CCRF-CEM leukemia = system: CCRF-CEM leukemia
SN12C renal = system: SN12C renal
A498 renal = system: A498 renal

SMILES: Nc1c(C(=O)c2cccc(OC[C@@H](O)CO)c2)cnn1-c1ccc(F)cc1
- TGI (SF-268 CNS): > 25 µM
- GI50 (COLO 205 colon): > 25 µM
- TGI (COLO 205 colon): > 25 µM
- GI50 (OVCAR-3 ovarian): > 25 µM
- TGI (OVCAR-3 ovarian): > 25 µM
- GI50 (MALME-3M melanoma): > 25 µM
- TGI (MALME-3M melanoma): > 25 µM
- GI50 (KM12 colon): > 25 µM
- TGI (KM12 colon): > 25 µM
- GI50 (SK-MEL-5 melanoma): > 25 µM
- TGI (SK-MEL-5 melanoma): > 25 µM
- GI50 (TK-10 renal): > 25 µM
- TGI (TK-10 renal): > 25 µM
- GI50 (SW-620 colon): > 25 µM
- TGI (SW-620 colon): > 25 µM
- GI50 (MDA-MB-435): > 25 µM
- TGI (MDA-MB-435): > 25 µM
- GI50 (BT-549 breast): > 25 µM
- TGI (BT-549 breast): > 25 µM
- GI50 (OVCAR-5 ovarian): > 25 µM
- TGI (OVCAR-5 ovarian): > 25 µM
- GI50 (NCI-H460 lung): > 25 µM
- TGI (NCI-H460 lung): > 25 µM
- GI50 (ACHN renal): > 25 µM
- TGI (ACHN renal): > 25 µM
- GI50 (OVCAR-8 ovarian): > 25 µM
- TGI (OVCAR-8 ovarian): > 25 µM
- GI50 (786-0 renal): > 25 µM
- TGI (786-0 renal): > 25 µM
- GI50 (NCI-H226 lung): > 25 µM
- TGI (NCI-H226 lung): > 25 µM
- GI50 (LOX IMVI melanoma): > 25 µM
- TGI (LOX IMVI melanoma): > 25 µM
- GI50 (HS 578T breast): > 25 µM
- TGI (HS 578T breast): > 25 µM
- GI50 (SF-295 CNS): > 25 µM
- TGI (SF-295 CNS): > 25 µM
- GI50 (NCI-H522 lung): > 25 µM
- TGI (NCI-H522 lung): > 25 µM
- GI50 (RXF 393 renal): > 25 µM
- TGI (RXF 393 renal): > 25 µM
- GI50 (SNB-75 CNS): > 25 µM
- TGI (SNB-75 CNS): > 25 µM
- GI50 (DU-145 prostate): > 25 µM
- TGI (DU-145 prostate): > 25 µM
- GI50 (NCI/ADR-RES ovarian): > 25 µM
- TGI (NCI/ADR-RES ovarian): > 25 µM
- GI50 (MOLT-4 leukemia): > 25 µM
- TGI (MOLT-4 leukemia): > 25 µM
- GI50 (SK-MEL-28 melanoma): > 25 µM
- TGI (SK-MEL-28 melanoma): > 25 µM
- GI50 (CCRF-CEM leukemia): > 25 µM
- TGI (CCRF-CEM leukemia): > 25 µM
- GI50 (SN12C renal): > 25 µM
- TGI (SN12C renal): > 25 µM
- GI50 (A498 renal): > 25 µM
- TGI (A498 renal): > 25 µM
